Source: PMC5038265 (Antimicrobial Agents and Chemotherapy, 2016)
≈ marks a conversion by molar mass, not a printed value. Where two headings read alike, the source gives them in different places.

Legend:
M. tuberculosis LeuRS = M. tuberculosis LeuRS (Mycobacterium tuberculosis, UniProt P9WFV1); assay: biochemical; parameters: species or system M. tuberculosis H37Rv
M. tuberculosis H37Rv [1] = assay: MIC for M. tuberculosis H37Rv (resazurin/alamarBlue); assay type: cell-based, Mycobacterium tuberculosis; settings: for MIC: Mycobacterium tuberculosis, H37RV, read-out: MIC M.tb H37Rv; for MIC values used in kill kinetics experiment: M. tuberculosis H37Rv, Fig. 6
Vero cells = assay: In vitro cytotoxicity assay (MTT); assay type: cell-based, African green monkey; settings: Chlorocebus sabaeus, 72 h
Method: Vero epithelial cells (from African green monkey; ATCC CCL-81) were cultured in Dulbecco's modified Eagle's medium (DMEM) supplemented with 10% fetal bovine serum (FBS) and maintained in a humidified incubator (37°C in 5% CO2). Cells were dislodged with a cell scraper, collected by centrifugation, resuspended in fresh medium at ∼10^6 cells/ml, dispensed into 96-well microtiter plates ([…]), and incubated for 18 h at 37°C. Twofold serial dilutions of test compounds in DMEM with FBS were subsequently added, and cells were incubated for another 72 h. In triplicate studies, the cytopathic effects of compounds were evaluated colorimetrically by using the 3-(4,5-dimethyl-2-thiazolyl)-2,5-diphenyl-2H-tetrazolium bromide (MTT) cell proliferation assay (ATCC). IC50 data were obtained from dose-response curves plotted by using GraphPad Prism 5.

[2] = test system: M. smegmatis ATCC 700084 and leuS resistant mutants; assay: Liquid culture MIC for compound 1-resistant M. smegmatis mutants; assay type: cell-based, Mycobacterium smegmatis; settings: Mycolicibacterium smegmatis
Source text: Mutants resistant to compound 1 were isolated on Middlebrook 7H10 medium plus 10% (vol/vol) oleic albumin dextrose catalase (OADC) supplement (Becton Dickinson) containing compound 1 at 4× MIC. Resistance was confirmed by measuring the mutant MIC values essentially as described previously by Collins and Franzblau ([17]).

in vivo = settings: 30 mg/kg
Method: Mouse pharmacokinetic studies were conducted by using female CD-1 mice for compounds 1, 11, and 12, while BALB/c mice were used for compound 13. Mouse body weights were 19 to 28 g, and on the morning of dosing, mice were split randomly into 3 dosing groups to receive the test article by either intravenous (i.v.) tail vein injection or oral (p.o.) gavage. After dosing, blood samples were collected via cardiac puncture at specific time points (n = 3 mice/time point) through 24 h (K2EDTA as an anticoagulant) and processed for plasma. Antibiotic concentrations in the plasma samples were analyzed by liquid chromatography-tandem mass spectrometry (LC-MS/MS). The LC-MS/MS analysis was conducted by using analyte/internal standard peak area methods. The internal standard was AN3365 ([21]), and the instrument used was an API4000 QTRAP instrument (AB Sciex). The limit of quantitation (LOQ) was 1 or 2 ng/ml. Pharmacokinetic analyses of the mean plasma concentration-time profiles were performed by using WinNonlin Pro version 5.2. A compartmental model was used for the data for i.v. dosing, and a noncompartmental model was used for the data for p.o. dosing. […] Compounds 1 and 13 were formulated in saline (0.9% [wt/vol] NaCl) at 7.5 mg/ml, and the pH was adjusted to >5 by the addition of NaOH. Compound 11 was formulated to 6.5 mg/ml in water-dimethylacetamide-ethanol (EtOH) (76:19:5), and the pH was adjusted to >5 by the addition of NaOH. Compound 12 was formulated to 7.5 mg/ml in PEG 300-propylene glycol (PG)-water (55:25:20), and the pH was adjusted to >5 by the addition of NaOH.

M. tuberculosis H37Rv [3] = assay: microbe, parasite or virus in culture; assay type: cell-based; settings: Mycobacterium tuberculosis, read-out: MIC on Middlebrook 7H10 agar
COX1 in HepG2 cells = assay: Mitochondrial protein synthesis assay, COX1 level; assay type: cell-based; settings: Homo sapiens, 168 h; HepG2, 7 days; read-out: Mean EC50 ± SD COX1
Method: (§1) The human liver carcinoma-derived HepG2 cell line was obtained from the ATCC (ATCC HB-8065). HepG2 cells were grown in Dulbecco's modified Eagle's medium containing 10% fetal calf serum, 1 mM sodium pyruvate, 0.1 mM essential amino acids, and 50 U/ml penicillin-streptomycin at 37°C with 5% CO2. HepG2 cells were seeded into 96-well plates at 3,000 cells/200 μl/well in cell culture medium. Cells were then grown in the presence of the compounds at 37°C in 10% CO2 for 7 days in at least duplicate concentrations, with the medium and compounds being replaced on the fourth day. After 7 days, the levels of SDHA (subunit A of the succinate dehydrogenase complex) and COX1 (cytochrome c oxidase) were determined by using the MitoSciences In-Cell enzyme-linked immunosorbent assay (ELISA) kit. Janus green staining was used to determined cell viability after 7 days (In-Cell ELISA kit, catalog number MS643).

SDHA in HepG2 cells = assay: Mitochondrial protein synthesis assay, SDHA level; assay type: cell-based; settings: Homo sapiens, 168 h; HepG2, 7 days; read-out: Mean EC50 ± SD SDHA
Method: as §1

HepG2 cells = assay: HepG2 cell viability (Janus green staining); assay type: cell-based; settings: Homo sapiens, 168 h, HepG2, 7 days, read-out: Mean EC50 ± SD Cell viability
Method: as §1

M. tuberculosis H37Rv [4] = assay type: in vivo, C57BL/6J mice; settings: 30 mg/kg QD, 8 weeks, lungs
M. tuberculosis H37Rv [5] = test system: M. tuberculosis H37Rv; parameters: species or system C57BL/6J mice; settings: mouse, in vivo
M. tuberculosis H37Rv [6] = assay: Time-kill assay; assay type: cell-based

M. tuberculosis LeuRS, sequence (P9WFV1 whole entry): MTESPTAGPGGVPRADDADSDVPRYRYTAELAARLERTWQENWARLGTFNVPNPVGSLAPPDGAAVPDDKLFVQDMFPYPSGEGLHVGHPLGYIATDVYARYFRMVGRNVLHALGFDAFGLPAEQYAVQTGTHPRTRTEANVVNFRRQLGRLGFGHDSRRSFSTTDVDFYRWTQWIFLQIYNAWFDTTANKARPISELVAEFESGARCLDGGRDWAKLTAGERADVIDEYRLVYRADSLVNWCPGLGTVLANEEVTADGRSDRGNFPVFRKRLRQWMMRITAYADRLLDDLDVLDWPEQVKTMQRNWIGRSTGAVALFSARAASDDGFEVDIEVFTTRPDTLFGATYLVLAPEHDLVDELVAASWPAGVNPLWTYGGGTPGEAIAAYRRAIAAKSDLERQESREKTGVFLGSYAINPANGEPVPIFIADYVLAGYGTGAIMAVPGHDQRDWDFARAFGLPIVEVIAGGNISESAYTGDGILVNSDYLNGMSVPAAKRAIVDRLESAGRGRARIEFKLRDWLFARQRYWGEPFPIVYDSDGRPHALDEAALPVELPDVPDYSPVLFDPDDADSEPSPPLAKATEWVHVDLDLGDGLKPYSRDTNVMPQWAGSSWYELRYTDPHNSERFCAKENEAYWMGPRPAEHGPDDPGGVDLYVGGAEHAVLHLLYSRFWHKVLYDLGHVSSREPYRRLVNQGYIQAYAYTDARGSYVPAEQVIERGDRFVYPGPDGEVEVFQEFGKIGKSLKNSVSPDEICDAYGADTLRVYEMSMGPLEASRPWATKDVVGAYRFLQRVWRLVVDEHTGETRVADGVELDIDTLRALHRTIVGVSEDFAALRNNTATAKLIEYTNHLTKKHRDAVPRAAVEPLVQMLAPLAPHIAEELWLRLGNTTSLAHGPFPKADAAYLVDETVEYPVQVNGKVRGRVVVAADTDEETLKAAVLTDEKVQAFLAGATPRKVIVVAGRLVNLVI

**Q.** Which results are given for CCOc1cccc2c1B(O)OC2CN (stereo not shown) [Compound 1]?
**A.** IC50 (M. tuberculosis LeuRS; read-out: IC50 M.tb LeuRS): 0.28 µM; MIC (M. tuberculosis H37Rv [1]): 0.26 µg/mL (≈ 1.26 µM); EC50 (Vero cells): > 50 µM; MIC ([2]; ATCC700084, M. smegmatis ATCC 700084, liquid culture): 1 µg/mL (≈ 4.83 µM); MIC ([2]; ATCC700084, M. smegmatis RM1 leuS Δ421–462, liquid culture): > 256 µg/mL; AUC(0-t) (in vivo; CD-1, mouse, in vivo, po): 15000 ng·h/mL; Cmax (in vivo; CD-1, mouse, in vivo, po): 4330 ng/mL; bioavailability (in vivo; CD-1, mouse, in vivo, po): 55%

**Q.** Which “MIC values used in kill kinetics experiment” value (M. tuberculosis H37Rv [1]) does the source give for COc1c(N2C[C@@H]3CCCN[C@@H]3C2)c(F)cc2c(=O)c(C(=O)O)cn(C3CC3)c12 [Moxifloxacin, moxifloxacin, reference compound] here?
**A.** 0.06 µg/mL (≈ 0.149 µM)

**Q.** What about the MIC (M. tuberculosis H37Rv [3]) of the same molecule?
**A.** 0.08 µg/mL (≈ 0.199 µM)

**Q.** For CCOc1ccc(Br)c2c1B(O)O[C@@H]2CN [Compound 14], which IC50 (M. tuberculosis LeuRS) is on record?
**A.** 0.08 µM

**Q.** What about the “MIC values used in kill kinetics experiment” value (M. tuberculosis H37Rv [1]) of the same molecule?
**A.** 0.013 µg/mL (≈ 0.0455 µM)

**Q.** And the MIC (M. tuberculosis H37Rv [1])?
**A.** 0.02 µg/mL (≈ 0.0699 µM)

**Q.** And the “α-t1/2 % AUC” value (in vivo; mouse, i.v.)?
**A.** 5 % AUC

**Q.** What about the “β-t1/2 % AUC” value (in vivo; mouse, i.v.) of the same molecule?
**A.** 95 % AUC

**Q.** And the AUC(0-inf) (in vivo; mouse, in vivo, iv)?
**A.** 43700 ng·h/mL

**Q.** And the Cmax (in vivo; mouse, in vivo, iv)?
**A.** 17100 ng/mL

**Q.** And the MRT (in vivo; mouse, in vivo, iv)?
**A.** 4.7 h

**Q.** And the Vd (in vivo; mouse, in vivo, iv)?
**A.** 3.22 L/kg

**Q.** What about the clearance (in vivo; mouse, in vivo, iv) of the same molecule?
**A.** 11.4 mL/min/kg

**Q.** And the half-life (in vivo; mouse, in vivo, iv, α-t1/2, mouse)?
**A.** 0.05 h

**Q.** What about the half-life (in vivo; mouse, in vivo, iv, β-t1/2, mouse) of the same molecule?
**A.** 3.4 h

**Q.** What about the AUC(0-t) (in vivo; mouse, in vivo, po) of the same molecule?
**A.** 57600 ng·h/mL

**Q.** What about the Cmax (in vivo; mouse, in vivo, po) of the same molecule?
**A.** 6300 ng/mL

**Q.** And the Tmax (in vivo; mouse, in vivo, po)?
**A.** 0.5 h

**Q.** What about the bioavailability (in vivo; mouse, in vivo, po) of the same molecule?
**A.** 100%

**Q.** What about the half-life (in vivo; mouse, in vivo, po, Terminal t1/2, mouse) of the same molecule?
**A.** 3.6 h

**Q.** And the EC50 (COX1 in HepG2 cells)?
**A.** > 150 µM

**Q.** What about the EC50 (SDHA in HepG2 cells) of the same molecule?
**A.** 21.5 ± 6.4 µM

**Q.** What about the EC50 (HepG2 cells) of the same molecule?
**A.** 106 ± 37.5 µM

**Q.** And the “reduction in CFU” value (M. tuberculosis H37Rv [4])?
**A.** 2.4 log10

**Q.** And the “efficacy in murine model of acute TB infection” value (M. tuberculosis H37Rv [5])?
**A.** more active at lower doses than linezolid

**Q.** And the “in vitro kill kinetics profile” value (M. tuberculosis H37Rv [6])?
**A.** very similar to that of the bacteriostatic protein synthesis inhibitor linezolid

**Q.** And the MIC (M. tuberculosis H37Rv [3])?
**A.** 0.2 µg/mL (≈ 0.699 µM)
